Experiment [1] concerns the target T1, ATP-binding cassette sub-family C member 9 (Rattus norvegicus, UniProt Q63563). In words: Binding affinity towards Sulfonylurea receptor 2B (SUR2B) in cultured rat aortic smooth muscle cells (SMC).
Experiment [2] concerns the target T1, ATP-binding cassette sub-family C member 9. Kind of experiment: Binding affinity to the sulfonylurea receptor 2A (SUR2A) in purified membranes of rat-heart myocytes.

Molecules are shown by their SMILES.

As a reminder, the Kd is the equilibrium constant for the complex coming apart.

T1 sequence (Q63563 whole entry): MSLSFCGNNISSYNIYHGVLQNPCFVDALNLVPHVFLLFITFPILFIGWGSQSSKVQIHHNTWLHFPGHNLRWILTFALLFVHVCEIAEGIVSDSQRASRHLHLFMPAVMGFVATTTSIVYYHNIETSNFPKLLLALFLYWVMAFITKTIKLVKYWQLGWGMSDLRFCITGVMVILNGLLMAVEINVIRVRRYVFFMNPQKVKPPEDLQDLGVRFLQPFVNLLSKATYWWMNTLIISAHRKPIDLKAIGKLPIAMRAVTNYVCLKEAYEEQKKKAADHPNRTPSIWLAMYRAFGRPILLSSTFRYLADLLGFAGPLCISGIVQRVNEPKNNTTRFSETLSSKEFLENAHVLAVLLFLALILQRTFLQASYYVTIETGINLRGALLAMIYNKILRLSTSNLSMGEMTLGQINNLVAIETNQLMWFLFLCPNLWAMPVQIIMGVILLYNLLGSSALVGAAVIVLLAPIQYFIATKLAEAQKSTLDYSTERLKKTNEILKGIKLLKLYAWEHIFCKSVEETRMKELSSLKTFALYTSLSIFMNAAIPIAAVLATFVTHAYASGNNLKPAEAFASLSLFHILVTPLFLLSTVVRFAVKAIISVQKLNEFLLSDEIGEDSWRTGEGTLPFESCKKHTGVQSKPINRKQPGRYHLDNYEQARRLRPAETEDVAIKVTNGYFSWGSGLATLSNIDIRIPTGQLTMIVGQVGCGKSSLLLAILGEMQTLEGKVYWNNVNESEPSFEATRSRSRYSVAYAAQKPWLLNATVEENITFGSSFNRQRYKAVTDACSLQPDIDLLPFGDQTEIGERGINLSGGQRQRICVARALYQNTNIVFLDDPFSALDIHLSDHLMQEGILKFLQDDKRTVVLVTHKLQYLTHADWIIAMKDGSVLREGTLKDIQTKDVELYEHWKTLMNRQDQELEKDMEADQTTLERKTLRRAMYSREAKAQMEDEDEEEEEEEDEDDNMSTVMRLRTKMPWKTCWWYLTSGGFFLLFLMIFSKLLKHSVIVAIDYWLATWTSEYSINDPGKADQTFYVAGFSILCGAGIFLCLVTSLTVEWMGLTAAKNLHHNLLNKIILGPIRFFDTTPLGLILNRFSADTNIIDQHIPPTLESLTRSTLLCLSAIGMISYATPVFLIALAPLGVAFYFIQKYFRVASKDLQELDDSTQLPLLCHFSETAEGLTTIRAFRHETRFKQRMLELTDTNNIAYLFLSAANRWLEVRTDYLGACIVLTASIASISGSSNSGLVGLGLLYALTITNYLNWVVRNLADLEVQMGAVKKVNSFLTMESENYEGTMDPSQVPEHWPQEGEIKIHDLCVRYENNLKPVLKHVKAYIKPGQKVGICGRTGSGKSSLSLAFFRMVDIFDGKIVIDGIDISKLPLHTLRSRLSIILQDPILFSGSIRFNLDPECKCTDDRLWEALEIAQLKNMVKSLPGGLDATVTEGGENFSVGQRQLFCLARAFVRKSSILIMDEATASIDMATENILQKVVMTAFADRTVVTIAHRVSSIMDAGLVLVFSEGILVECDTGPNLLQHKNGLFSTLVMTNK

On to `CC1(C)C=C(n2ccccc2=O)c2cc(S(=O)(=O)Oc3ccccc3)ccc2O1`, for which the results for the Kd in experiment [1] and in experiment [2] were 2.8 nM and 17 nM, respectively.
For `[2H]c1c([2H])c([2H])c(NS(=O)(=O)c2ccc3c(c2)C(n2ccccc2=O)=CC(C)(C)O3)c([2H])c1[2H]` the same measures were 7.4 nM and 19 nM.
For `CC(C)NS(=O)(=O)c1ccc2c(c1)C(n1ccccc1=O)=CC(C)(C)O2` the same measures were 8320 nM and 6610 nM.
The matching figures for `CN(c1ccccc1)S(=O)(=O)c1ccc2c(c1)C(n1ccccc1=O)=CC(C)(C)O2`: 13 nM and 20 nM.
Take `CC1(C)C=C(n2ccccc2=O)c2cc(S(=O)(=O)Nc3ccccc3Br)ccc2O1`: the figures for the Kd in experiment [1] and in experiment [2] were 23 nM and 138 nM, respectively.
For `CNS(=O)(=O)c1ccc2c(c1)C(n1ccccc1=O)=CC(C)(C)O2` the same measures were 55 nM and 66 nM.
The matching figures for `CC1(C)C=C(n2ccccc2=O)c2cc(S(=O)(=O)Nc3ccc([N+](=O)[O-])cc3)ccc2O1`: 1590 nM and 4470 nM.
The matching figures for `CC1(C)C=C(n2ccccc2=O)c2cc(S(=O)(=O)Nc3ccccc3F)ccc2O1`: 11 nM and 23 nM.
With `CC1(C)C=C(n2ccccc2=O)c2cc(S(=O)(=O)Nc3ccc(C#N)cc3)ccc2O1`, the results for the Kd in experiment [1] and in experiment [2] were 759 nM and 3160 nM, respectively.
The matching figures for `CC1(C)C=C(n2ccccc2=O)c2cc(S(=O)(=O)NCc3ccccc3)ccc2O1`: 1000 nM and 5250 nM.
On to `CC1(C)C=C(n2ccccc2=O)c2cc(S(=O)(=O)c3ccccc3)ccc2O1`, for which the Kd in experiment [1] was found to be 65 nM; in experiment [2] it was 138 nM.
In the case of `CC1(C)C=C(n2ccccc2=O)c2cc(S(=O)(=O)N=[N+]=[N-])ccc2O1`, binding in experiment [2] was characterised by a dissociation constant (Kd) of 15 nM.
Still for that read-out and setting: as for `CC1(C)C=C(n2ccccc2=O)c2cc(S(=O)(=O)NC(=O)NC3CCCCC3)ccc2O1`, the figure is 5620 nM.
As to `CC1(C)C=C(n2ccccc2=O)c2cc(S(=O)(=O)NCCO)ccc2O1`, the values for the Kd in experiment [1] and in experiment [2] were 457 nM and 692 nM, respectively.
For `CC1(C)C=C(n2ccccc2=O)c2cc(S(=O)(=O)N3CCOCC3)ccc2O1` the same measures were 186 nM and 363 nM.
As to `CC1(C)C=C(n2ccccc2=O)c2cc(S(=O)(=O)NC(=O)Nc3ccccc3)ccc2O1`, binding in experiment [2] was put at a Kd of 2820 nM.
For the compound `CCN(CC)S(=O)(=O)c1ccc2c(c1)C(n1ccccc1=O)=CC(C)(C)O2`, the Kd in experiment [1] stood at 115 nM; in experiment [2] it was 355 nM.
The matching figures for `CC1(C)C=C(n2ccccc2=O)c2cc(S(=O)(=O)Nc3ccccc3)ccc2O1`: 8.9 nM and 15 nM.
The matching figures for `CC1(C)C=C(n2ccccc2=O)c2cc(S(=O)(=O)Nc3ccc(Br)cc3)ccc2O1`: 224 nM and 1700 nM.
For `CCNS(=O)(=O)c1ccc2c(c1)C(n1ccccc1=O)=CC(C)(C)O2` the same measures were 100 nM and 200 nM.
As to `CC1(C)C=C(n2ccccc2=O)c2cc(S(N)(=O)=O)ccc2O1`, the equilibrium dissociation constant (Kd) in experiment [1] came to 115 nM; in experiment [2], 316 nM.
The matching figures for `CN(C)S(=O)(=O)c1ccc2c(c1)C(n1ccccc1=O)=CC(C)(C)O2`: 63 nM and 123 nM.
The matching figures for `COc1ccc(NS(=O)(=O)c2ccc3c(c2)C(n2ccccc2=O)=CC(C)(C)O3)cc1`: 245 nM and 537 nM.
The matching figures for `CC1(C)C=C(n2ccccc2=O)c2cc(S(=O)(=O)NC3CCCC3)ccc2O1`: 537 nM and 1410 nM.
For the compound `CC1(C)C=C(n2ccccc2=O)c2cc(S(=O)(=O)F)ccc2O1`, the dissociation constant (Kd) was found to be 9.8 nM in experiment [1] and 15 nM in experiment [2].
Turning to `CC1(C)C=C(n2ccccc2=O)c2cc(C#N)ccc2O1` [Bimakalim], the dissociation constant Kd turned out to be 10 nM in experiment [1] and 56 nM in experiment [2].
The matching figures for `CC1(C)Oc2ccc(S(=O)(=O)c3ccccc3)cc2[C@@H](N2CCCC2=O)[C@@H]1O` [Rilmakalim]: 7.1 nM and 27 nM.

(Values after BindingDB's records for doi:10.1021/jm010999g (2002).)
